# Tested on: H9 embryonic stem cells
# Type: cell-based, human
# Settings: low serum
# Experimental: Controls for each group included cells plated on […]-coated dishes and cultured in MEF-conditioned medium or cells plated on MEFs and cultured in ES medium. All groups contained three biological replicates and each biological replicate was repeated on two separate gene chips.
# Sample preparation, hybridization, and image analysis were performed according to the Affymetrix Human Genome U133 Plus 2.0 Array. Following normalization and a log transformation, data analysis was performed using OmniViz® software (MA) and […] (VizXLabs, WA). Significant differences in gene expression between the samples were evaluated using analysis of variance and an F-test with adjusted P-value (Benjamini and
# Hochberg correction) of ≦b 0.05. Only genes with a present call in at least one group were included in the analysis.
substance,measurement,setting,value
Activin A: a member of the TGFβ superfamily; R&D Systems; Group 2 = Activin A (100 ng/ml),"log intensity, nudix (nucleoside diphosphate linked moiety X)-type motif 4",on MATRIGEL,2.095
same,"log intensity, olfactory receptor, family 52, subfamily A, member 1 (OR52A1)",on MATRIGEL,−0.3096
same,"log intensity, oxoglutarate dehydrogenase (lipoamide) (OGDH)",on MATRIGEL,−0.03259
same,"log intensity, partial LHX9 gene for LIM-homeobox 9, 3UTR",on MATRIGEL,−2.2486
same,"log intensity, partial mRNA for putative nuclear factor",on MATRIGEL,1.552
same,"log intensity, phosphatidylinositol-4-phosphate 5-kinase, type I, beta (PIP5K1B)",on MATRIGEL,1.349
same,"log intensity, phosphofructokinase, liver (PFKL)",on MATRIGEL,2.039
same,"log intensity, pilin-like transcription factor (PILB)",on MATRIGEL,3.145
same,"log intensity, pleiomorphic adenoma gene-like 1",on MATRIGEL,−0.6468
same,"log intensity, plexin A2",on MATRIGEL,0.9305
same,"log intensity, polycythemia rubra vera 1; cell surface receptor (PRV1)",on MATRIGEL,−1.196
same,"log intensity, porcupine (MG61)",on MATRIGEL,1.518
same,"log intensity, protease, serine, 4 (trypsin 4, brain)",on MATRIGEL,−0.3456
same,"log intensity, protein S (alpha) (PROS1)",on MATRIGEL,0.5776
same,"log intensity, protocadherin 10",on MATRIGEL,1.767
same,"log intensity, putative 47 kDa protein (r448)",on MATRIGEL,−0.1239
same,"log intensity, putative 47 kDa protein (r770)",on MATRIGEL,0.1565
same,"log intensity, putative sterol reductase SR-1 (TM7SF2)",on MATRIGEL,1.669
same,"log intensity, ras homolog gene family, member B",on MATRIGEL,−0.1231
same,"log intensity, receptor tyrosine kinase-like orphan receptor 2 (ROR2)",on MATRIGEL,1.533
same,"log intensity, regulator of G protein signalling 5 (RGS5)",on MATRIGEL,3.0091
same,"log intensity, ret finger protein-like 2 (RFPL2)",on MATRIGEL,−2.155
same,"log intensity, secreted apoptosis related protein 2 (SARP2)",on MATRIGEL,3.184
same,"log intensity, secreted frizzled-related protein 1",on MATRIGEL,1.649
same,"log intensity, sialyltransferase (STHM)",on MATRIGEL,−0.6871
same,"log intensity, signal transducer and activator of transcription 3 (acute-phase response factor)",on MATRIGEL,−0.8373
same,"log intensity, singed (Drosophila)-like (sea urchin fascin homolog like) (SNL)",on MATRIGEL,4.233
same,"log intensity, sodium dependent phosphate transporter isoform NaPi-IIb",on MATRIGEL,−0.3971
same,"log intensity, solute carrier (SLC25A18)",on MATRIGEL,0.4037
same,"log intensity, solute carrier family 9 (sodiumhydrogen exchanger), isoform 5 (SLC9A5)",on MATRIGEL,0.04749
same,"log intensity, stanniocalcin 1 (STC1), mRNA",on MATRIGEL,2.394
same,"log intensity, stanniocalcin 1 (r1113)",on MATRIGEL,2.487
same,"log intensity, testican 3 (HSAJ1454)",on MATRIGEL,−2.812
same,"log intensity, testis enhanced gene transcript (BAX inhibitor 1)",on MATRIGEL,−0.6952
same,"log intensity, thyrotropin-releasing hormone (TRH)",on MATRIGEL,−1.657
same,"log intensity, transcription factor 2, hepatic; LF-B3; variant hepatic nuclear factor (TCF2), transcript variant a",on MATRIGEL,−1.125
same,"log intensity, transcriptional activator of the c-fos promoter (CROC4)",on MATRIGEL,0.6664
same,"log intensity, transmembrane tyrosine kinase mRNA",on MATRIGEL,−0.006089
same,"log intensity, tropomodulin, clone MGC: 3643",on MATRIGEL,0.3488
same,"log intensity, tryptase, alpha",on MATRIGEL,2.991
same,"log intensity, tudor repeat associator with PCTAIRE 2",on MATRIGEL,2.158
same,"log intensity, tyrosine 3-monooxygenasetryptophan 5-monooxygenase activation protein, eta polypeptide (r705)",on MATRIGEL,2.985
same,"log intensity, tyrosine 3-monooxygenasetryptophan 5-monooxygenase activation protein, eta polypeptide (r966)",on MATRIGEL,3.483
same,"log intensity, AD036 mRNA",on MEFS,1.603
same,"log intensity, ADP-ribosylation factor 4-like (ARF4L)",on MEFS,4.48
same,"log intensity, BACE mRNA for beta-site APP cleaving enzyme I-476",on MEFS,1.446
same,"log intensity, BTB (POZ) domain containing 2 (BTBD2)",on MEFS,2.325
same,"log intensity, CXCR4 gene encoding receptor CXCR4",on MEFS,6.361
same,"log intensity, Cluster Incl. AB002344: Human mRNA for KIAA0346 gene (r901)",on MEFS,3.478
same,"log intensity, Cluster Incl. AB002344: Human mRNA for KIAA0346 gene (r941)",on MEFS,3.317
same,"log intensity, Cluster Incl. L37033: Human FK-506 binding protein homologue (FKBP38)",on MEFS,1.661
same,"log intensity, Cluster Incl. N80935: zb07g06.s1 Homo sapiens cDNA",on MEFS,2.666
same,"log intensity, ESTs (r403)",on MEFS,2.715
same,"log intensity, ESTs (r404)",on MEFS,2.276
same,"log intensity, ESTs (r405)",on MEFS,−1.711
same,"log intensity, ESTs (r442)",on MEFS,5.906
same,"log intensity, ESTs (r453)",on MEFS,−2.153
same,"log intensity, ESTs (r473)",on MEFS,0.8364
same,"log intensity, ESTs (r491)",on MEFS,−0.4453
same,"log intensity, ESTs (r522)",on MEFS,2.214
same,"log intensity, ESTs (r523)",on MEFS,0.05049
same,"log intensity, ESTs (r524)",on MEFS,2.399
same,"log intensity, ESTs (r556)",on MEFS,0.7383
same,"log intensity, ESTs (r567)",on MEFS,1.124
same,"log intensity, ESTs (r627)",on MEFS,3.973
same,"log intensity, ESTs (r741)",on MEFS,2.614
same,"log intensity, ESTs (r745)",on MEFS,3.836
same,"log intensity, ESTs (r766)",on MEFS,2.128
same,"log intensity, ESTs (r767)",on MEFS,−0.3504
same,"log intensity, ESTs (r891)",on MEFS,−0.1307
same,"log intensity, ESTs (r916)",on MEFS,1.395
same,"log intensity, ESTs (r938)",on MEFS,−0.6132
same,"log intensity, ESTs (r980)",on MEFS,0.5547
same,"log intensity, ESTs (r1021)",on MEFS,0.6436
same,"log intensity, ESTs (r1022)",on MEFS,3.471
same,"log intensity, ESTs (r1059)",on MEFS,2.077
same,"log intensity, ESTs (r1060)",on MEFS,2.463
same,"log intensity, ESTs (r1110)",on MEFS,3.792
same,"log intensity, ESTs (r1115)",on MEFS,2.521
same,"log intensity, ESTs, Highly similar to AF229172 1 class III myosin",on MEFS,0.002417
same,"log intensity, ESTs, Moderately similar to ALU4_HUMAN ALU SUBFAMILY SB2",on MEFS,−0.9837
same,"log intensity, ESTs, Moderately similar to JC4969 pig-c protein",on MEFS,−1.045
same,"log intensity, ESTs, Moderately similar to NFY-C",on MEFS,−0.2427
same,"log intensity, ESTs, Weakly similar to A46302 PTB-associated splicing factor, long form",on MEFS,2.695
same,"log intensity, ESTs, Weakly similar to ALU8_HUMAN ALU SUBFAMILY SX",on MEFS,4.578
same,"log intensity, ESTs, Weakly similar to ALUC_HUMAN",on MEFS,2.7193
same,"log intensity, ESTs, Weakly similar to ALUF_HUMAN",on MEFS,0.5876
same,"log intensity, ESTs, Weakly similar to KIAA1330 protein",on MEFS,1.182
same,"log intensity, ESTs, Weakly similar to KIAA1399 protein",on MEFS,2.8
same,"log intensity, ESTs, Weakly similar to T32252 hypothetical protein T15B7.2",on MEFS,3.333
same,"log intensity, ESTs, Weakly similar to Z132_HUMAN ZINC FINGER PROTEIN 13",on MEFS,2.122
same,"log intensity, F37Esophageal cancer-related gene-coding leucine-zipper motif (FEZ1)",on MEFS,2.104
same,"log intensity, FLICE-like inhibitory protein short form",on MEFS,4.928
same,"log intensity, GS1999full mRNA",on MEFS,0.8499
same,"log intensity, H1 histone family, member X (H1FX)",on MEFS,4.51
same,"log intensity, H2A histone family, member X",on MEFS,−0.04057
same,"log intensity, H. sapiens skeletal embryonic myosin light chain 1 (MLC1)",on MEFS,2.36
same,"log intensity, HT016 mRNA",on MEFS,2.452
same,"log intensity, Homo sapiens nudix (nucleoside diphosphate linked moiety X)-type motif (r1198)",on MEFS,6.428
same,"log intensity, Human DNA sequence from clone RP4-781L3 on chromosome 1p34.3-36.11",on MEFS,4.439
same,"log intensity, Human DNA sequence from clone RP11-446H13 on chromosome 10",on MEFS,2.12
same,"log intensity, Human MLC1emb gene for embryonic myosin alkaline light chain, promoter and exon 1",on MEFS,4.04
same,"log intensity, Human clone 23826 mRNA sequence",on MEFS,1.443
same,"log intensity, Human embryonic myosin alkali light chain (MLC1)",on MEFS,4.115
same,"log intensity, Human extracellular matrix protein 1 (ECM1)",on MEFS,1.376
same,"log intensity, Human mRNA for pro-alpha 1 (II) collagen 3end C-term.",on MEFS,2.157
same,"log intensity, Human rho GDI mRNA",on MEFS,−0.6515
same,"log intensity, KIAA0127 gene product (KIAA0127)",on MEFS,3.002
same,"log intensity, KIAA0346 protein",on MEFS,1.415
same,"log intensity, KIAA0418 gene product",on MEFS,0.03438
same,"log intensity, KIAA0761 protein",on MEFS,1.059
same,"log intensity, KIAA0882 protein",on MEFS,4.675
same,"log intensity, KIAA0918 protein",on MEFS,−0.575
same,"log intensity, KIAA1415 protein",on MEFS,1.743
same,"log intensity, KIAA1511 protein",on MEFS,1.575
same,"log intensity, Kruppel-like factor 8 (KLF8)",on MEFS,1.639
same,"log intensity, LIM homeobox protein 1 (LHX1)",on MEFS,0.08556
same,"log intensity, LYST-interacting protein LIP3",on MEFS,−0.3125
same,"log intensity, MAD (mothers against decapentaplegic, Drosophila) homolog 6 (MADH6)",on MEFS,3.5309
same,"log intensity, MYC-associated zinc finger protein (purine-binding transcription factor) (MAZ)",on MEFS,0.5113
same,"log intensity, Novel human mRNA from chromosome 22",on MEFS,3.058
same,"log intensity, PNAS-145 mRNA",on MEFS,4.2868
same,"log intensity, PRO1957 mRNA",on MEFS,4.227
same,"log intensity, PTPRF interacting protein, binding protein 2 (liprin beta 2)",on MEFS,2.773
same,"log intensity, Pig10 (PIG10)",on MEFS,1.098
same,"log intensity, SG2NA beta isoform",on MEFS,−1.534
same,"log intensity, Similar to B9 protein, clone MGC: 11339",on MEFS,2.292
same,"log intensity, Similar to RIKEN cDNA C330013D18 gene, clone MGC: 11226",on MEFS,1.427
same,"log intensity, Similar to lipase protein, clone MGC: 2843",on MEFS,0.9617
same,"log intensity, X75208 H. sapiens HEK2 mRNA for protein tyrosine kinase receptor",on MEFS,1.082
same,"log intensity, adaptor-related protein complex 3, beta 2 subunit (AP3B2)",on MEFS,1.074
same,"log intensity, adenylate cyclase 8 (brain) (ADCY8)",on MEFS,−2.261
same,"log intensity, alpha 2,8-sialyltransferase",on MEFS,1.055
same,"log intensity, aminolevulinate, delta-, dehydratase, clone MGC: 5057",on MEFS,2.769
same,"log intensity, annexin A6 (ANXA6), transcript variant 1",on MEFS,4.5
same,"log intensity, apolipoprotein A-II (APOA2)",on MEFS,4.759
same,"log intensity, apolipoprotein C-I (APOC1)",on MEFS,5.51
same,"log intensity, arrestin, beta 1 (ARRB1), transcript variant 1",on MEFS,−0.4092

# Source: patent US20100255580A1, “Differentiation of Human Embryonic Stem Cells” (LIFESCCAN, INC., priority 2007, published 2010)
